Test results as given in patent publication US20240217966A1, “PHARMACEUTICAL COMPOSITION CONTAINING GLP-1 RECEPTOR AGONIST HAVING FUSED RING” (Shionogi & Co., Ltd., priority 2021, published 2024).
Read-outs that look alike come from different tables or passages of the source.

Target: T1, Human GLP-1 receptor (Homo sapiens, UniProt P43220)
T1 construct: expressed in transfected cells
Experiment: Measurement of GLP-1 receptor agonist activity (cAMP assay)
Format: cell-based
Protocol: Test Example 1: (Measurement of GLP-1 Receptor Agonist Activity)
Human GLP-1 receptor stably expressing cells (hGLP-1R/CHO-K1 cells) are cultured in an α-MEM medium (Sigma) containing 10% FBS (Hyclone), 2% GlutaMAX (Gibco), 1% G418 (Nacalai Tesque), and 1% Penicillin-Streptomycin Mixed Solution (Sigma) at 37° C. under 5% CO2 conditions, and recovered by treating a 10 fold diluted 5.0 g/l-trypsin/5.3 mmol/l-EDTA solution (Nacalai Tesque) and cryopreserved.
A DMSO solution containing the compound of the present invention or human GLP-1 (7-36) (Phoenix Pharmaceuticals) is dispensed into a 384-well microplate (Greiner) at 62.5 nL/well, and in addition, 400 μM Forskolin (Nacalai Tesque) is dispensed therein at 7.5 nL/well. Subsequently, the frozen GLP-1 R/CHO-K1 cells are thawed in a thermostatic bath at 37° C., suspended in HBSS buffer (GIBCO) containing 0.1% BSA (Sigma), 20 mM HEPES (GIBCO), 0.1 mM IBMX (Sigma), and 0.2 mM RO20-1724 (Calbiochem) at 2×10^4 cells/mL, and the cell suspension is added at 6 μL/well. The solution was incubated at 37° C. for 1 hour and intracellular cAMP concentration is measured using cAMP Gs dynamic kit (Cisbio) according to the protocol attached to the product. Specifically, cAMP-d2 and Anti-cAMP-Cryptate are each added in an amount of 3 μL/well, the mixture is incubated at room temperature for 1 hour, and time-resolved fluorescence is measured using PHERAstar (BMG Labtech).
The dilution concentration or the dilution solvent are changed as necessary.
The compounds of the present invention were tested essentially as described above.

[1] = CHO-K1, hGLP-1R/CHO-K1 cells, cAMP, 100% = human GLP-1 (7-36) at 2 nM, 0% = DMSO only, read-out: Emax(%)
[2] = hGLP-1R/CHO-K1 cells, cAMP increase, 37° C. 1 hour

T1 sequence (P43220 24-463): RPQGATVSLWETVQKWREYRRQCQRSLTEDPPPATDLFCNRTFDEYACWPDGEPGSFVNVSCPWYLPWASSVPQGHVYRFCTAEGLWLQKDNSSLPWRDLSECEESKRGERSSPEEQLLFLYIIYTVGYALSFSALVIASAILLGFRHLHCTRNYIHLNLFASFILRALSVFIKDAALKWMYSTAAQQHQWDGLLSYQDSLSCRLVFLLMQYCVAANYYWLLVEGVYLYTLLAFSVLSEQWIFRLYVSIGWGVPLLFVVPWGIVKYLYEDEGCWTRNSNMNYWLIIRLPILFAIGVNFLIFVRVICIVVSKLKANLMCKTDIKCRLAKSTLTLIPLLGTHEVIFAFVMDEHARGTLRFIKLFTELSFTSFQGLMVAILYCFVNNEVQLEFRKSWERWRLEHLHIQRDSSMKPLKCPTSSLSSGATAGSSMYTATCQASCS

| SMILES | Emax [1] [%] | EC50 [2] [µM] | Emax (CHO-K1, maximum effect, cAMP increase in GLP-1 R/CHO-K1 cells, 2 nM human GLP-1 (7-36) = 100%, DMSO only = 0%, read-out: Emax) [%] | EC50 (cAMP increase in GLP-1 R/CHO-K1 cells, 2 nM human GLP-1 (7-36) = 100%, DMSO only = 0%) [µM] |
| --- | --- | --- | --- | --- |
| CC(c1nc2ccc(C(=O)O)cc2n1C[C@@H]1CCO1)N1CCc2cc(C(F)(F)F)c(OCc3ccc(Cl)cc3F)cc2C1 (mixture of isomers) [Compound I-032] | 146 | 0.0927 | – | – |
| CCC1c2cc(OCc3ccc(Cl)cc3F)c(C(F)(F)F)cc2CCN1Cc1nc2ccc(C(=O)O)cc2n1C[C@@H]1CCO1 (mixture of isomers) [Compound I-044] | 103 | 0.00998 | – | – |
| O=C(O)c1ccc2nc(CN3CCc4cc(C(F)(F)F)c(OCc5ccc(Cl)cc5F)cc4C3C(F)F)n(C[C@@H]3CCO3)c2c1 (mixture of isomers) [Compound I-066] | 124 | 0.00872 | – | – |
| O=C(O)c1ccc2nc(CN3CCc4cc(C(F)(F)F)c(OCc5ccc(Cl)cc5F)cc4C3CF)n(C[C@@H]3CCO3)c2c1 (mixture of isomers) [Compound I-133] | 112 | 0.0045 | – | – |
| Cc1cc2c(cc1OCc1ccc(Cl)cc1F)CN(Cc1nc3ccc(C(=O)O)cc3n1C[C@@H]1CCO1)CC2 [Compound I-001] | 75 | 0.0475 | – | – |
| CCn1cncc1Cn1c(CN2CCc3cc(C)c(OCc4ccc(Cl)cc4F)cc3C2)nc2ccc(C(=O)O)cc21 [Compound I-002] | 92.2 | 0.0433 | – | – |
| Cc1cc2c(cc1OCc1ccc(Cl)cc1F)C(=O)N(Cc1nc3ccc(C(=O)O)cc3n1C[C@@H]1CCO1)CC2 [Compound I-004] | 75.3 | 0.0439 | – | – |
| Cc1cc2ccc(Cc3nc4ccc(C(=O)O)cc4n3C[C@@H]3CCO3)cc2nc1OCc1ccc(Cl)cc1F [Compound I-006] | 86 | – | – | – |
| O=C(O)c1ccc2nc(CN3CCc4cc(Br)c(OCc5ccc(Cl)cc5F)cc4C3)n(C[C@@H]3CCO3)c2c1 [Compound I-007] | 75.7 | 0.0198 | – | – |
| N#Cc1cc2c(cc1OCc1ccc(Cl)cc1F)CN(Cc1nc3ccc(C(=O)O)cc3n1C[C@@H]1CCO1)CC2 [Compound I-008] | 84.3 | – | – | – |
| Cc1cc2c(cc1OCc1ccc(Cl)cc1F)CN(Cc1nc3ccc(C(=O)O)nc3n1C[C@@H]1CCO1)CC2 [Compound I-009] | 81.3 | 0.0273 | – | – |
| Cc1cc2c(cc1OCc1ccc(Cl)cc1F)C(=O)N(Cc1nc3ccc(C(=O)O)nc3n1C[C@@H]1CCO1)CC2 [Compound I-011] | 92.7 | 0.0708 | – | – |
| Cc1cc2c(cc1OCc1ccc(C(F)(F)F)cn1)CN(Cc1nc3ccc(C(=O)O)cc3n1C[C@@H]1CCO1)CC2 [Compound I-015] | 81.3 | 0.0743 | – | – |
| Cc1cc2c(cc1OCc1ccc(Cl)cc1)CN(Cc1nc3ccc(C(=O)O)cc3n1C[C@@H]1CCO1)CC2 [Compound I-016] | 79 | 0.0503 | – | – |
| Cc1cc2c(cc1OCc1ccc(C(F)(F)F)cc1F)CN(Cc1nc3ccc(C(=O)O)cc3n1C[C@@H]1CCO1)CC2 [Compound I-020] | 89 | 0.0758 | – | – |
| O=C(O)c1ccc2nc(CN3CCc4cc(Cl)c(OCc5ccc(Cl)cc5F)cc4C3)n(C[C@@H]3CCO3)c2c1 [Compound I-022] | 92.3 | 0.015 | – | – |
| O=C(O)c1ccc2nc(CN3CCc4cc(C(F)(F)F)c(OCc5ccc(Cl)cc5F)cc4C3)n(C[C@@H]3CCO3)c2c1 [Compound I-023] | 86 | 0.00456 | – | – |
| O=C(O)c1ccc2nc(CN3CCc4cc(Cl)c(OCc5ccc(Cl)cc5F)cc4C3)n(C[C@@H]3CCO3)c2n1 [Compound I-024] | 92.7 | 0.0264 | – | – |
| CC1c2cc(OCc3ccc(Cl)cc3F)ccc2CCN1Cc1nc2ccc(C(=O)O)cc2n1C[C@@H]1CCO1 (some centres unmarked) [Compound I-025] | – | – | 78.7 | 0.109 |
| O=C(O)c1ccc2nc(CN3CCc4cc(C(F)(F)F)c(OCc5ccc(Cl)cc5F)cc4C3)n(C[C@@H]3CCO3)c2n1 [Compound I-026] | 85 | 0.00635 | – | – |
| O=C(O)c1ccc2nc(CN3CCc4cc(C(F)F)c(OCc5ccc(Cl)cc5F)cc4C3)n(C[C@@H]3CCO3)c2c1 [Compound I-027] | 80 | 0.00948 | – | – |
| Cc1cc2c(cc1OCc1ccc(Cl)cc1F)CN(Cc1nc3ncc(C(=O)O)cc3n1C[C@@H]1CCO1)CC2 [Compound I-028] | 84 | 0.0786 | – | – |
| Cc1cc2c(cc1OCc1ccc(F)cc1F)CN(Cc1nc3ccc(C(=O)O)cc3n1C[C@@H]1CCO1)CC2 [Compound I-029] | 81.3 | 0.0946 | – | – |

| SMILES | Emax [1] [%] | EC50 [2] [µM] | Emax (CHO-K1, maximum effect, cAMP increase in GLP-1 R/CHO-K1 cells, 2 nM human GLP-1 (7-36) = 100%, DMSO only = 0%, read-out: Emax) [%] | EC50 (cAMP increase in GLP-1 R/CHO-K1 cells, 2 nM human GLP-1 (7-36) = 100%, DMSO only = 0%) [µM] |
| --- | --- | --- | --- | --- |
| O=C(O)c1ccc2nc(CN3CCc4cc(C(F)(F)F)c(OCc5ccc(Cl)cc5F)cc4C3=O)n(C[C@@H]3CCO3)c2c1 [Compound I-030] | 92.3 | 0.00356 | – | – |
| O=C(O)c1ccc2nc(CN3CCc4cc(C(F)(F)F)c(OCc5ccc(Cl)cc5F)cc4C3=O)n(C[C@@H]3CCO3)c2n1 [Compound I-031] | 91 | 0.00892 | – | – |
| O=C(O)c1cc2c(cc1F)nc(CN1CCc3cc(C(F)(F)F)c(OCc4ccc(Cl)cc4F)cc3C1)n2C[C@@H]1CCO1 [Compound I-034] | 103 | 0.00871 | – | – |
| C[C@@H]1c2cc(OCc3ccc(Cl)cc3F)c(C(F)(F)F)cc2CCN1Cc1nc2ccc(C(=O)O)cc2n1C[C@@H]1CCO1 [Compound I-036] | 66 | 0.0995 | – | – |
| C[C@H]1c2cc(OCc3ccc(Cl)cc3F)c(C(F)(F)F)cc2CCN1Cc1nc2ccc(C(=O)O)nc2n1C[C@@H]1CCO1 [Compound I-037] | 126 | 0.000663 | – | – |
| CS(=O)(=O)CCn1c(CN2CCc3cc(C(F)(F)F)c(OCc4ccc(Cl)cc4F)cc3C2)nc2ccc(C(=O)O)cc21 [Compound I-039] | 83.3 | 0.0438 | – | – |
| O=C(O)c1ccc2nc(CN3CCc4cc(C(F)(F)F)c(OCc5ccc(Cl)cc5F)cc4C3)n(C[C@@H]3CCCO3)c2c1 [Compound I-040] | 147 | 0.0377 | – | – |
| N#CCC1(Cn2c(CN3CCc4cc(C(F)(F)F)c(OCc5ccc(Cl)cc5F)cc4C3)nc3ccc(C(=O)O)cc32)CC1 [Compound I-041] | 102 | 0.0452 | – | – |
| O=C(O)c1ccc2nc(CN3CCc4cc(C(F)(F)F)c(OCc5ccc(Cl)cc5F)cc4C3)n(C[C@H]3CCO3)c2c1 [Compound I-042] | 95 | 0.0738 | – | – |
| O=C(O)c1ccc2nc(CN3CCc4cc(C(F)(F)F)c(OCc5ccc(Cl)cc5F)cc4C3)n(CC3(CF)CC3)c2c1 [Compound I-043] | 109 | 0.0132 | – | – |
| COCCn1c(CN2CCc3cc(C(F)(F)F)c(OCc4ccc(Cl)cc4F)cc3C2)nc2ccc(C(=O)O)cc21 [Compound I-045] | 93.7 | 0.0815 | – | – |
| O=C(O)c1ccc2nc(Cc3ccc4cc(C(F)(F)F)c(OCc5ccc(Cl)cc5F)nc4c3)n(C[C@@H]3CCO3)c2c1 [Compound I-046] | 118 | – | – | – |
| O=C(O)c1ccc2nc(CN3CCc4cc(C(F)(F)F)c(OCc5ccc(OC(F)F)cc5F)cc4C3)n(C[C@@H]3CCO3)c2c1 [Compound I-047] | 105 | 0.0043 | – | – |
| O=C(O)c1ccc2nc(CN3CCc4cc(C(F)(F)F)c(OCc5ccc(Cl)cc5F)cc4C3)n(CC3(C(F)F)CC3)c2c1 [Compound I-048] | 130 | 0.0754 | – | – |
| CCn1cncc1Cn1c(CN2CCc3cc(C(F)(F)F)c(OCc4ccc(Cl)cc4F)cc3C2)nc2ccc(C(=O)O)cc21 [Compound I-049] | 95 | 0.00503 | – | – |
| Cn1nncc1Cn1c(CN2CCc3cc(C(F)(F)F)c(OCc4ccc(Cl)cc4F)cc3C2)nc2ccc(C(=O)O)cc21 [Compound I-050] | 67.7 | 0.238 | – | – |
| O=C(O)c1ccc2nc(CN3CCc4cc(C(F)(F)F)c(OCc5ccc(Cl)cc5F)cc4C3)n(Cc3cccnc3)c2c1 [Compound I-051] | 87.3 | 0.0242 | – | – |
| O=C(O)c1ccc2nc(CN3CCc4cc(C(F)(F)F)c(OCc5ccc(Cl)cc5F)cc4C3)n(Cc3ncco3)c2c1 [Compound I-052] | 92 | 0.0245 | – | – |
| N#Cc1ccc(COc2cc3c(cc2C(F)(F)F)CCN(Cc2nc4ccc(C(=O)O)cc4n2C[C@@H]2CCO2)C3)c(F)c1 [Compound I-053] | 115 | 0.0146 | – | – |
| O=C(O)c1ccc2nc(CN3CCc4cc(C(F)(F)F)c(OCc5ccc(Cl)cc5F)cc4C3)n(C[C@@H]3CCO3)c2c1F [Compound I-054] | 104 | 0.000948 | – | – |
| O=C(NS(=O)(=O)C1CC1)c1ccc2nc(CN3CCc4cc(C(F)(F)F)c(OCc5ccc(Cl)cc5F)cc4C3)n(C[C@@H]3CCO3)c2c1 [Compound I-055] | 87.3 | 0.0788 | – | – |
| O=C(O)c1ccc2nc(CN3CCc4cc(C(F)(F)F)c(OCc5ccc(C(F)F)cc5F)cc4C3)n(C[C@@H]3CCO3)c2c1 [Compound I-056] | 110 | 0.00604 | – | – |
| O=C(O)c1ccc2nc(CN3CCc4cc(C(F)(F)F)c(OCc5ccc(Cl)c(F)c5F)cc4C3)n(C[C@@H]3CCO3)c2c1 [Compound I-059] | 112 | 0.0299 | – | – |
